{"source": "patent US7034051B2", "about": "“Fused bicyclic carboxamide derivatives and methods of their use” (Adolor Corporation, priority 2003, dated 2006)", "key": {"[1]": {"molecular_target": "T1, cloned human δ opioid receptor (Homo sapiens, UniProt P41143)", "T1 construct": "expressed in transfected cells", "T1 sequence (P41143 whole entry)": "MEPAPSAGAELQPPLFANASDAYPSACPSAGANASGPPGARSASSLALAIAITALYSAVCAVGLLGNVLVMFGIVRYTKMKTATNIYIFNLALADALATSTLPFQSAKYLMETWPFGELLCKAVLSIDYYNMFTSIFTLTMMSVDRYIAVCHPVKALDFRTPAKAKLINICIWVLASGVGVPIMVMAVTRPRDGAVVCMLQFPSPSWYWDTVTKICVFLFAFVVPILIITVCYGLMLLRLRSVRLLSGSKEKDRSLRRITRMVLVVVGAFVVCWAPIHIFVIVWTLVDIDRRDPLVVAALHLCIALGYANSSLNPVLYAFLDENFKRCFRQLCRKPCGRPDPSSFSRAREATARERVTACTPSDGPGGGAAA", "test": "In vitro binding assay, inhibition of [3H]diprenorphine binding to cloned human δ opioid receptor", "description": "IC50 values were obtained by nonlinear analysis of the data using GraphPad Prism version 3.00 for Windows (GraphPad Software, San Diego). Ki values were obtained by Cheng-Prusoff corrections of IC50 values.\nAfter incubation at room temperature for one hour, the samples were filtered through GF/B filters that had been presoaked in a solution of 0.5% (w/v) polyethylenimine and 0.1% (w/v) bovine serum albumin in water. The filters were rinsed 4 times with 1 mL of cold 50 mM Tris HCl, pH 7.8 and radioactivity remaining on the filters determined by scintillation spectroscopy. Nonspecific binding was determined by the minimum values of the titration curves and was confirmed by separate assay wells containing 10 μM naloxone.\nTo determine the equilibrium dissociation constant for the inhibitors (Ki), radioligand bound (cpm) in the presence of various concentrations of test compounds was measured. The concentration to give half-maximal inhibition (EC50) of radioligand binding was determined from a best nonlinear regression fit to the following equation,\nThe nonlinear regression fit was performed using the program Prism® (GraphPad Software, San Diego, Calif.). The Ki values were then determined from the EC50 values by the following equation, […]"}, "[2]": {"test_system": "formalin-induced flinching in rats", "test": "In vivo formalin-induced nociception assay", "parameters": "species or system rat", "conditions": "dose of 300 μg, i.paw", "description": "Administration of formalin into the paw results in a localized inflammation and a pain response that is moderate in intensity and continuous in duration. Unlike many other assays of nociception, the formalin assay measures tonic pain that is a result of tissue injury, and therefore is a model which is more relevant to clinical pain states in humans (see Tjolsen et al., Pain 51: 5–17, 1992). In the rat the response to formalin-induced pain consists of spontaneous flinching behavior, characterized by paw lifting and paw shaking, and a rapid vibration of the paw after drawing it under the body. […] The early or acute phase lasts from 0–5 minutes post-formalin and is followed by a quiescent period lasting approximately 15 minutes. The tonic phase occurs from 20–35 minutes following formalin injection and is the interval where the number of flinching responses is maximal. […]\nInflammation is induced by subcutaneous injection of […] of a 5% formalin solution into the dorsal surface of the right hind paw of male Sprague-Dawley rats weighing 70–90 g. Injections of drug are given into the dorsal surface of the paw prior to formalin injection, and flinching behavior is quantitated by counting the number of responses that occur during the tonic phase of pain, lasting from 20–35 min after formalin injection. […]"}}, "data": [{"molecule": "COC(=O)NCc1ccc2c(c1)CC[C@H](C(=O)N(C)[C@H](CN1CC[C@H](O)C1)c1ccccc1)O2", "note": "[Example 52, (2-{[2-({S}-3-Hydroxy-pyrrolidin-1-yl)-{S}-1-phenyl-ethyl]-(R)-methyl-carbamoyl}-chroman-6-ylmethyl)-carbamic acidmethyl ester]", "values": [{"measurement": "Ki", "setting": "[1]", "result": 1.6, "unit": "µM"}, {"measurement": "% A (percent antagonism of formalin-induced flinching)", "setting": "[2]", "result": 95, "unit": "%"}]}]}
